Measurements from patent US7259153B2, “Drug formulation and delivery using crystalline methylated cyclodextrins” (Supernus Pharmaceuticals, priority 2003, dated 2007).
In brackets after ≈: the same amount, converted by molar mass. Where two headings read alike, the source gives them in different places. Values belong to the compound of their own block, whether it stands above or below them.

Experiments:
[1] = Equilibrium solubility of drug substance in media with solubilizer (excess drug, rotated 48 hours at room temperature, filtered, HPLC); format: physicochemical; conditions: for solubility at 48 h: thermodynamic from solid; for solubility enhancement ratio: vs vehicle alone
Method: An excess of drug substance was added to 20 ml glass liquid scintillation vials (Kimble Glass Inc., Vineland, N.J.) containing 10 ml of the media with a specific amount of solubilizer. […] The samples were filtered through a 0.45 μm filter (Acrodisc CR PTFE membrane filter, Gelman Sciences, Ann Arbor, Mich.). After discarding the first mL of the filtrates to eliminate any membrane adsorptive effect, the filtrates were collected for high-performance liquid chromatography (HPLC) analysis for drug concentration.

[2] = set by the WHO; cited from earlier work
[3] = Stability of crystalline methylated β-cyclodextrin against heat and humidity; format: physicochemical
[4] = Water solubility of the cyclodextrin itself; format: physicochemical; conditions: room temperature
[5] = water; cited from earlier work
[6] = 2% (w/v) Cryst. Methylated β-CD, aqueous
[7] = 2% (w/v) HP-β-cyclodextrin, aqueous
[8] = 5% (w/v) Cryst. Methylated β-CD, aqueous
[9] = 5% (w/v) HP-β-cyclodextrin, aqueous
[10] = 10% (w/v) Cryst. Methylated β-CD, aqueous
[11] = 10% (w/v) HP-β-cyclodextrin, aqueous

Compound: CC(O)CO (centres unmarked) [propylene glycol]
acceptable daily intake [2]: up to 25 mg/kg body weight

Compound: OC[C@H]1O[C@@H]2O[C@H]3[C@H](O)[C@@H](O)[C@@H](O[C@H]4[C@H](O)[C@@H](O)[C@@H](O[C@H]5[C@H](O)[C@@H](O)[C@@H](O[C@H]6[C@H](O)[C@@H](O)[C@@H](O[C@H]7[C@H](O)[C@@H](O)[C@@H](O[C@H]8[C@H](O)[C@@H](O)[C@@H](O[C@H]1[C@H](O)[C@H]2O)O[C@@H]8CO)O[C@@H]7CO)O[C@@H]6CO)O[C@@H]5CO)O[C@@H]4CO)O[C@@H]3CO [β-cyclodextrin]
aqueous solubility [5]: 1.8 % w/v

The remaining lines, values ahead:

solubility at 48 h ([1]; 1% (w/v) Cavasol W7M, aqueous, aqueous with cosolvent or surfactant or cyclodextrin, 1% (w/v) Cavasol W7M, aqueous, read-out: Oxcarbazepine Solubility): 150 µg/mL (≈ 0.595 mM)
solubility enhancement ratio ([1]; 1% (w/v) Cavasol W7M, aqueous): 2.1
solubility at 48 h ([1]; 1% (w/v) Cryst. Methylated β-CD, aqueous, aqueous with cosolvent or surfactant or cyclodextrin, 1% (w/v) Cryst. Methylated β-CD, aqueous, read-out: Oxcarbazepine Solubility): 230 µg/mL (≈ 0.912 mM)
solubility enhancement ratio ([1]; 1% (w/v) Cryst. Methylated β-CD, aqueous): 3.3
solubility at 48 h ([1]; 1% (w/v) HP-β-cyclodextrin, aqueous, aqueous with cosolvent or surfactant or cyclodextrin, 1% (w/v) HP-β-cyclodextrin, aqueous, read-out: Oxcarbazepine Solubility): 130 µg/mL (≈ 0.515 mM)
solubility enhancement ratio ([1]; 1% (w/v) HP-β-cyclodextrin, aqueous): 1.9
solubility at 48 h ([1]; 1% (w/v) Tween 80, aqueous, aqueous with cosolvent or surfactant or cyclodextrin, 1% (w/v) Tween 80, aqueous, read-out: Oxcarbazepine Solubility): 120 µg/mL (≈ 0.476 mM)
solubility enhancement ratio ([1]; 1% (w/v) Tween 80, aqueous): 1.7
solubility at 48 h ([1]; 2% (w/v) Cavasol W7M, aqueous, aqueous with cosolvent or surfactant or cyclodextrin, 2% (w/v) Cavasol W7M, aqueous, read-out: Oxcarbazepine Solubility): 240 µg/mL (≈ 0.951 mM)
solubility enhancement ratio ([1]; 2% (w/v) Cavasol W7M, aqueous): 3.4
solubility at 48 h ([1]; 2% (w/v) Cryst. Methylated β-CD, aqueous, aqueous with cosolvent or surfactant or cyclodextrin, 2% (w/v) Cryst. Methylated β-CD, aqueous, read-out: Oxcarbazepine Solubility): 310 µg/mL (≈ 1.23 mM)
solubility enhancement ratio [1, 6]: 4.4
solubility at 48 h ([1]; 2% (w/v) HP-β-cyclodextrin, aqueous, aqueous with cosolvent or surfactant or cyclodextrin, 2% (w/v) HP-β-cyclodextrin, aqueous, read-out: Oxcarbazepine Solubility): 190 µg/mL (≈ 0.753 mM)
solubility enhancement ratio [1, 7]: 2.7
solubility at 48 h ([1]; 2% (w/v) Tween 80, aqueous, aqueous with cosolvent or surfactant or cyclodextrin, 2% (w/v) Tween 80, aqueous, read-out: Oxcarbazepine Solubility): 170 µg/mL (≈ 0.674 mM)
solubility enhancement ratio ([1]; 2% (w/v) Tween 80, aqueous): 2.4
solubility enhancement ratio ([1]; 5% (w/v) Cavasol W7M, aqueous): 7.0
solubility enhancement ratio [1, 8]: 11.7
solubility enhancement ratio [1, 9]: 4.9
solubility at 48 h ([1]; 5% (w/v) Tween 80, aqueous, aqueous with cosolvent or surfactant or cyclodextrin, 5% (w/v) Tween 80, aqueous, read-out: Oxcarbazepine Solubility): 290 µg/mL (≈ 1.15 mM)
solubility enhancement ratio ([1]; 5% (w/v) Tween 80, aqueous): 4.1
solubility enhancement ratio ([1]; 10% (w/v) Cavasol W7M, aqueous): 9.6
solubility enhancement ratio [1, 10]: 21.3
solubility enhancement ratio [1, 11]: 9.6
solubility enhancement ratio ([1]; 10% (w/v) Tween 80, aqueous): 7.1
solubility at 48 h ([1]; aqueous media with solubilizer, aqueous with cosolvent or surfactant or cyclodextrin, 5% (w/v) Cavasol W7M, aqueous, read-out: Oxcarbazepine Solubility): 490 µg/mL (≈ 1.94 mM)
solubility at 48 h ([1]; aqueous media with solubilizer, aqueous with cosolvent or surfactant or cyclodextrin, 5% (w/v) Cryst. Methylated β-CD, aqueous, read-out: Oxcarbazepine Solubility): 820 µg/mL (≈ 3.25 mM)
solubility at 48 h ([1]; aqueous media with solubilizer, aqueous with cosolvent or surfactant or cyclodextrin, 5% (w/v) HP-β-cyclodextrin, aqueous, read-out: Oxcarbazepine Solubility): 340 µg/mL (≈ 1.35 mM)
solubility at 48 h ([1]; aqueous media with solubilizer, aqueous with cosolvent or surfactant or cyclodextrin, 10% (w/v) Cavasol W7M, aqueous, read-out: Oxcarbazepine Solubility): 670 µg/mL (≈ 2.66 mM)
solubility at 48 h ([1]; aqueous media with solubilizer, aqueous with cosolvent or surfactant or cyclodextrin, 10% (w/v) Cryst. Methylated β-CD, aqueous, read-out: Oxcarbazepine Solubility): 1490 µg/mL (≈ 5.91 mM)
solubility at 48 h ([1]; aqueous media with solubilizer, aqueous with cosolvent or surfactant or cyclodextrin, 10% (w/v) HP-β-cyclodextrin, aqueous, read-out: Oxcarbazepine Solubility): 670 µg/mL (≈ 2.66 mM)
solubility at 48 h ([1]; aqueous media with solubilizer, aqueous with cosolvent or surfactant or cyclodextrin, 10% (w/v) Tween 80, aqueous, read-out: Oxcarbazepine Solubility): 500 µg/mL (≈ 1.98 mM)
Oxcarbazepine Solubility ([1]; water, 0% (w/v) solubilizer): 70 µg/mL
solubility at 48 h ([1]; water, water, 0% (w/v) solubilizer, read-out: Oxcarbazepine Solubility): 70 µg/mL (≈ 0.277 mM)
Compound: NC(=O)N1c2ccccc2CC(=O)c2ccccc21 [Oxcarbazepine]

stability against heat and humidity [3]: stable against heat and humidity
water solubility [4]: around 15%
Compound: crystalline methylated β-cyclodextrin

solubility enhancement ratio ([1]; 1% (w/v) β-Cyclodextrin, aqueous): 5.9
solubility at 48 h ([1]; 1% (w/v) β-cyclodextrin in water, aqueous with cosolvent or surfactant or cyclodextrin, 1% (w/v) β-Cyclodextrin, aqueous, read-out: Carbamazepine Solubility): 669 µg/mL (≈ 2.83 mM)
solubility at 48 h ([1]; 2% (w/v) Cavasol W7M in water, aqueous with cosolvent or surfactant or cyclodextrin, 2% (w/v) Cavasol W7M, aqueous, read-out: Carbamazepine Solubility): 1070 µg/mL (≈ 4.52 mM)
solubility enhancement ratio ([1]; 2% (w/v) Cavasol W7M, aqueous): 9.5
solubility enhancement ratio [1, 6]: 13.7
solubility at 48 h ([1]; 2% (w/v) HP-β-cyclodextrin in water, aqueous with cosolvent or surfactant or cyclodextrin, 2% (w/v) HP-β-cyclodextrin, aqueous, read-out: Carbamazepine Solubility): 1240 µg/mL (≈ 5.26 mM)
solubility enhancement ratio [1, 7]: 11.0
solubility at 48 h ([1]; 2% (w/v) crystalline methylated β-cyclodextrin in water, aqueous with cosolvent or surfactant or cyclodextrin, 2% (w/v) Cryst. Methylated β-CD, aqueous, read-out: Carbamazepine Solubility): 1540 µg/mL (≈ 6.53 mM)
solubility enhancement ratio ([1]; 2% (w/v) β-Cyclodextrin, aqueous): 10.5
solubility at 48 h ([1]; 2% (w/v) β-cyclodextrin in water, aqueous with cosolvent or surfactant or cyclodextrin, 2% (w/v) β-Cyclodextrin, aqueous, read-out: Carbamazepine Solubility): 1190 µg/mL (≈ 5.02 mM)
solubility at 48 h ([1]; 5% (w/v) Cavasol W7M in water, aqueous with cosolvent or surfactant or cyclodextrin, 5% (w/v) Cavasol W7M, aqueous, read-out: Carbamazepine Solubility): 2580 µg/mL (≈ 10.9 mM)
solubility enhancement ratio ([1]; 5% (w/v) Cavasol W7M, aqueous): 22.8
solubility enhancement ratio [1, 8]: 31.8
solubility at 48 h ([1]; 5% (w/v) HP-β-cyclodextrin in water, aqueous with cosolvent or surfactant or cyclodextrin, 5% (w/v) HP-β-cyclodextrin, aqueous, read-out: Carbamazepine Solubility): 2880 µg/mL (≈ 12.2 mM)
solubility enhancement ratio [1, 9]: 25.4
solubility at 48 h ([1]; 5% (w/v) crystalline methylated β-cyclodextrin in water, aqueous with cosolvent or surfactant or cyclodextrin, 5% (w/v) Cryst. Methylated β-CD, aqueous, read-out: Carbamazepine Solubility): 3590 µg/mL (≈ 15.2 mM)
solubility at 48 h ([1]; 7.5% (w/v) Cavasol W7M in water, aqueous with cosolvent or surfactant or cyclodextrin, 7.5% (w/v) Cavasol W7M, aqueous, read-out: Carbamazepine Solubility): 3760 µg/mL (≈ 15.9 mM)
solubility enhancement ratio ([1]; 7.5% (w/v) Cavasol W7M, aqueous): 33.3
solubility enhancement ratio ([1]; 7.5% (w/v) Cryst. Methylated β-CD, aqueous): 47.5
solubility at 48 h ([1]; 7.5% (w/v) HP-β-cyclodextrin in water, aqueous with cosolvent or surfactant or cyclodextrin, 7.5% (w/v) HP-β-cyclodextrin, aqueous, read-out: Carbamazepine Solubility): 4870 µg/mL (≈ 20.6 mM)
solubility enhancement ratio ([1]; 7.5% (w/v) HP-β-cyclodextrin, aqueous): 43.1
solubility at 48 h ([1]; 7.5% (w/v) crystalline methylated β-cyclodextrin in water, aqueous with cosolvent or surfactant or cyclodextrin, 7.5% (w/v) Cryst. Methylated β-CD, aqueous, read-out: Carbamazepine Solubility): 5370 µg/mL (≈ 22.7 mM)
solubility at 48 h ([1]; 10% (w/v) Cavasol W7M in water, aqueous with cosolvent or surfactant or cyclodextrin, 10% (w/v) Cavasol W7M, aqueous, read-out: Carbamazepine Solubility): 5250 µg/mL (≈ 22.2 mM)
solubility enhancement ratio ([1]; 10% (w/v) Cavasol W7M, aqueous): 46.4
solubility enhancement ratio [1, 10]: 61.6
solubility at 48 h ([1]; 10% (w/v) HP-β-cyclodextrin in water, aqueous with cosolvent or surfactant or cyclodextrin, 10% (w/v) HP-β-cyclodextrin, aqueous, read-out: Carbamazepine Solubility): 6020 µg/mL (≈ 25.5 mM)
solubility enhancement ratio [1, 11]: 53.3
solubility at 48 h ([1]; 10% (w/v) crystalline methylated β-cyclodextrin in water, aqueous with cosolvent or surfactant or cyclodextrin, 10% (w/v) Cryst. Methylated β-CD, aqueous, read-out: Carbamazepine Solubility): 6960 µg/mL (≈ 29.5 mM)
solubility at 48 h ([1]; 20% (w/v) Cavasol W7M in water, aqueous with cosolvent or surfactant or cyclodextrin, 20% (w/v) Cavasol W7M, aqueous, read-out: Carbamazepine Solubility): 10900 µg/mL (≈ 46.2 mM)
solubility enhancement ratio ([1]; 20% (w/v) Cavasol W7M, aqueous): 96.5
solubility enhancement ratio ([1]; 20% (w/v) Cryst. Methylated β-CD, aqueous): 132.4
solubility at 48 h ([1]; 20% (w/v) HP-β-cyclodextrin in water, aqueous with cosolvent or surfactant or cyclodextrin, 20% (w/v) HP-β-cyclodextrin, aqueous, read-out: Carbamazepine Solubility): 10700 µg/mL (≈ 45.3 mM)
solubility enhancement ratio ([1]; 20% (w/v) HP-β-cyclodextrin, aqueous): 94.8
solubility at 48 h ([1]; 20% (w/v) crystalline methylated β-cyclodextrin in water, aqueous with cosolvent or surfactant or cyclodextrin, 20% (w/v) Cryst. Methylated β-CD, aqueous (heating to dissolve CD), read-out: Carbamazepine Solubility): 15000 µg/mL (≈ 63.3 mM)
solubility at 48 h ([1]; PEG 400, organic solvent or mixture, vehicle: PEG 400, read-out: Carbamezepine Solubility): 77900 µg/mL (≈ 330 mM)
solubility at 48 h ([1]; Transcutol, organic solvent or mixture, vehicle: Transcutol, read-out: Carbamezepine Solubility): 78100 µg/mL (≈ 331 mM)
carbamazepine solubility in propylene glycol relative to aqueous solubility ([1]; propylene glycol vs water): about 310 fold
solubility at 48 h ([1]; propylene glycol, organic solvent or mixture, vehicle: Propylene Glycol, read-out: Carbamezepine Solubility): 35300 µg/mL (≈ 150 mM)
Carbamazepine Solubility ([1]; water, 0% (w/v) cyclodextrin): 113 µg/mL
Compound: NC(=O)N1c2ccccc2C=Cc2ccccc21 [Carbamazepine]
